In this experiment the target is T1, GST-tagged-Wee1 kinase (Homo sapiens, UniProt P30291).
T1 construct: purchased Carnabio (Carna Biosciences) 05-177
T1 sequence (P30291 whole entry): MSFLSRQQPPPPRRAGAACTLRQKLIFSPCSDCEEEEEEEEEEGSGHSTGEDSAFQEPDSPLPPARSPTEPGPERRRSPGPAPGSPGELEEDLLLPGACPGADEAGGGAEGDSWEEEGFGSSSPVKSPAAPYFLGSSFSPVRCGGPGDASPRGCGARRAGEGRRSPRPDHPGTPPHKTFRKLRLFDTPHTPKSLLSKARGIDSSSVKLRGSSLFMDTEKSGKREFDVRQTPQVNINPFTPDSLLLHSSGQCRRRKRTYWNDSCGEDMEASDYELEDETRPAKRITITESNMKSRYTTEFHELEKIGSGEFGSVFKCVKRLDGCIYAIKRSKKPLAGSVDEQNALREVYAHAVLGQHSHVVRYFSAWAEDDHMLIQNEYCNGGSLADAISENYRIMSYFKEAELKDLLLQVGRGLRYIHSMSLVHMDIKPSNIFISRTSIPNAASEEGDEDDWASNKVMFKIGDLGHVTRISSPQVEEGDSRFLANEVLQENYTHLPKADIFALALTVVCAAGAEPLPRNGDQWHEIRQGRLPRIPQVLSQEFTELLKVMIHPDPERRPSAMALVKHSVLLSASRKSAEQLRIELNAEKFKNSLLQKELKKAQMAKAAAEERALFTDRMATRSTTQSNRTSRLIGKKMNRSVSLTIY
As to the kind of experiment: Wee1 time-resolved fluorescence equilibrium binding assay (displacement of Oregon Green-labeled ATP-competitive kinase probe). The following applies: read-out: Wee-1 inhibition (Ki). The method in brief: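 Ki values derive from competitive displacement, under equilibrium, of a fast-reversible ATP-site Oregon Green kinase probe from GST-tagged Wee1, detected by time-resolved fluorescence.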
Usually Ki stands for the equilibrium dissociation constant of an inhibitor or competing ligand from its target. Turning to `CCN(CC)CCCOc1ccc(Nc2ncc3c(=O)n(-c4ccccc4Cl)c4nccn4c3n2)cc1F` [Example 50, 6-(2-chlorophenyl)-2-({4-[3-(diethylamino)propoxy]-3-fluorophenyl}amino)imidazo[1,2-a]pyrimido[5,4-e]pyrimidin-5(6H)-one], the Ki is below 10 nM.

In the case of `CCCOc1ccc(CN2Cc3cc(Nc4ncc5c(=O)n(-c6ccccc6Cl)c6nccn6c5n4)ccc3C(C)(C)C2)cc1` [Example 357, 6-(2-chlorophenyl)-2-{[4,4-dimethyl-2-(4-propoxybenzyl)-1,2,3,4-tetrahydroisoquinolin-7-yl]amino}imidazo[1,2-a]pyrimido[5,4-e]pyrimidin-5(6H)-one], the Ki lay within 10 to 100 nM.

On to `Nc1ccc(Nc2ncc3c(=O)n(-c4ccccc4Cl)c4nccn4c3n2)cc1` [Example 56, 2-[(4-aminophenyl)amino]-6-(2-chlorophenyl)imidazo[1,2-a]pyrimido[5,4-e]pyrimidin-5(6H)-one], for which the Ki is 10 to 100 nM.

For the compound `O=C(C1CC1)N1Cc2cc(Nc3ncc4c(=O)n(-c5c(Cl)cccc5Cl)c5nccn5c4n3)ccc2C2(CC2)C1` [Example 275, 2-{[2′-(cyclopropylcarbonyl)-2′,3′-dihydro-1′H-spiro[cyclopropane-1,4′-isoquinolin]-7′-yl]amino}-6-(2,6-dichlorophenyl)imidazo[1,2-a]pyrimido[5,4-e]pyrimidin-5(6H)-one], the Ki was below 10 nM.

`O=c1cn[nH]c2ccc(Nc3ncc4c(=O)n(-c5c(Cl)cccc5Cl)c5nccn5c4n3)cc12` [Example 213, 6-(2,6-dichlorophenyl)-2-[(4-oxo-1,4-dihydrocinnolin-6-yl)amino]imidazo[1,2-a]pyrimido[5,4-e]pyrimidin-5(6H)-one]: the Ki was below 10 nM.

On to `C[C@@H]1CN(c2ccc(Nc3ncc4c(=O)n(-c5c(Cl)cccc5Cl)c5nccn5c4n3)cc2F)C[C@H](C)N1` [Example 128, 6-(2,6-dichlorophenyl)-2-({4-[(3R,5S)-3,5-dimethylpiperazin-1-yl]-3-fluorophenyl}amino)imidazo[1,2-a]pyrimido[5,4-e]pyrimidin-5(6H)-one], for which the Ki is below 10 nM.

Turning to `O=c1c2cnc(Nc3ccc(-c4cccnc4)cc3)nc2n2ccnc2n1-c1ccccc1Cl` [Example 45, 6-(2-chlorophenyl)-2-{[4-(pyridin-3-yl)phenyl]amino}imidazo[1,2-a]pyrimido[5,4-e]pyrimidin-5(6H)-one], the Ki fell in the range of 10 to 100 nM.

For `CN1Cc2cc(Nc3ncc4c(=O)n(-c5ccccc5Cl)c5nccn5c4n3)ccc2C1(C)C` [Example 146, 6-(2-chlorophenyl)-2-[(1,1,2-trimethyl-2,3-dihydro-1H-isoindol-5-yl)amino]imidazo[1,2-a]pyrimido[5,4-e]pyrimidin-5(6H)-one], the Ki was below 10 nM.

For the compound `O=c1c2cnc(Nc3ccc4c(c3)CC(NC3CC3)C4)nc2n2ccnc2n1-c1c(F)cccc1Cl` (stereo not drawn) [Example 227, 6-(2-chloro-6-fluorophenyl)-2-{[2-(cyclopropylamino)-2,3-dihydro-1H-inden-5-yl]amino}imidazo[1,2-a]pyrimido[5,4-e]pyrimidin-5(6H)-one], the inhibitory constant (Ki) is below 10 nM.

With `CN1CCc2cc(Nc3ncc4c(=O)n(-c5c(Cl)cccc5Cl)c5nccn5c4n3)ccc2C1(C)C` [Example 150, 6-(2,6-dichlorophenyl)-2-[(1,1,2-trimethyl-1,2,3,4-tetrahydroisoquinolin-6-yl)amino]imidazo[1,2-a]pyrimido[5,4-e]pyrimidin-5(6H)-one], the inhibition constant (Ki) was below 10 nM.

For the compound `CN1Cc2cc(Nc3ncc4c(=N)n(-c5ccccc5Cl)c5nccn5c4n3)ccc2C(C)(C)C1` [Example 335, 6-(2-chlorophenyl)-5-imino-N-(2,4,4-trimethyl-1,2,3,4-tetrahydroisoquinolin-7-yl)-5,6-dihydroimidazo[1,2-a]pyrimido[5,4-e]pyrimidin-2-amine], the inhibition constant Ki was below 10 nM.

For `O=c1c2cnc(Nc3ccc(N4C[C@H]5C[C@@H]4CN5)cc3)nc2n2ccnc2n1-c1c(Cl)cccc1Cl` [Example 175, 2-({4-[(1R,4R)-2,5-diazabicyclo[2.2.1]hept-2-yl]phenyl}amino)-6-(2,6-dichlorophenyl)imidazo[1,2-a]pyrimido[5,4-e]pyrimidin-5(6H)-one], the Ki was below 10 nM.

`O=c1c2cnc(Nc3ccc(C4CCNC4)cc3)nc2n2ccnc2n1-c1c(Cl)cccc1Cl` (stereo not drawn) [Example 168, 6-(2,6-dichlorophenyl)-2-{[4-(pyrrolidin-3-yl)phenyl]amino}imidazo[1,2-a]pyrimido[5,4-e]pyrimidin-5(6H)-one]: the inhibition constant Ki was below 10 nM.

On to `CN1CCc2ccc(Nc3ncc4c(=O)n(-c5ccccc5Cl)c5nccn5c4n3)cc2C1` [Example 34, 6-(2-chlorophenyl)-2-[(2-methyl-1,2,3,4-tetrahydroisoquinolin-7-yl)amino]imidazo[1,2-a]pyrimido[5,4-e]pyrimidin-5(6H)-one], for which the Ki was below 10 nM.

With `O=c1c2cnc(Nc3ccc4c(c3)CNCC43CC3)nc2n2ccnc2n1-c1c(F)cccc1Cl` [Example 228, 6-(2-chloro-6-fluorophenyl)-2-(2′,3′-dihydro-1′H-spiro[cyclopropane-1,4′-isoquinolin]-7′-ylamino)imidazo[1,2-a]pyrimido[5,4-e]pyrimidin-5(6H)-one], the inhibition constant (Ki) is below 10 nM.

As for `CN1CCc2ccc(Nc3ncc4c(=O)n(-c5ccccc5Cl)c5nccn5c4n3)cc2C1(C)C` [Example 108, 6-(2-chlorophenyl)-2-[(1,1,2-trimethyl-1,2,3,4-tetrahydroisoquinolin-7-yl)amino]imidazo[1,2-a]pyrimido[5,4-e]pyrimidin-5(6H)-one], the Ki was below 10 nM.

For `O=C(NC1CCCCC1)c1ccc(Nc2ncc3c(=O)n(-c4ccccc4Cl)c4nccn4c3n2)cc1` [Example 41, 4-{[6-(2-chlorophenyl)-5-oxo-5,6-dihydroimidazo[1,2-a]pyrimido[5,4-e]pyrimidin-2-yl]amino}-N-cyclohexylbenzamide], the Ki was 10 to 100 nM.

Regarding `COC[C@@H]1CCCN1c1ccc(Nc2ncc3c(=O)n(-c4ccccc4Cl)c4nccn4c3n2)cc1` [Example 264, 6-(2-chlorophenyl)-2-({4-[(2S)-2-(methoxymethyl)pyrrolidin-1-yl]phenyl}amino)imidazo[1,2-a]pyrimido[5,4-e]pyrimidin-5(6H)-one], the Ki fell in the range of 10 to 100 nM.

For `O=c1c2cnc(Nc3ccc(CC4CCNCC4)cc3)nc2n2ccnc2n1-c1ccccc1Cl` [Example 291, 6-(2-chlorophenyl)-2-{[4-(piperidin-4-ylmethyl)phenyl]amino}imidazo[1,2-a]pyrimido[5,4-e]pyrimidin-5(6H)-one], the Ki was below 10 nM.

For `CN1CCN(c2ccc(Nc3ncc4c(=O)n(-c5ccccc5C(F)(F)F)c5nccn5c4n3)cc2)CC1` [Example 15, 2-{[4-(4-methylpiperazin-1-yl)phenyl]amino}-6-[2-(trifluoromethyl)phenyl]imidazo[1,2-a]pyrimido[5,4-e]pyrimidin-5(6H)-one], the Ki was 10 to 100 nM.

Turning to `CS(=O)(=O)N1Cc2cc(Nc3ncc4c(=O)n(-c5c(F)cccc5Cl)c5nccn5c4n3)ccc2C2(CC2)C1` [Example 243, 6-(2-chloro-6-fluorophenyl)-2-{[2′-(methylsulfonyl)-2′,3′-dihydro-1′H-spiro[cyclopropane-1,4′-isoquinolin]-7′-yl]amino}imidazo[1,2-a]pyrimido[5,4-e]pyrimidin-5(6H)-one], the inhibition constant (Ki) was below 10 nM.

Source of the values: patent US8710065B2, “Tricyclic inhibitors of kinases” (AbbVie Inc., priority 2011, dated 2014).
